Source: PubChem BioAssay (NCI)
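Dose response: 5 concentrations. Exposure: 48 h. Format: 96-well plates. Endpoint: linear interpolation; highest concentration if not reached. The concentration for full growth arrest is given as TGI.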

Experiments:
Assay in all cases: DTP human tumour cell line panel, 48 h
[1] = tested on: 786-0 renal
[2] = tested on: A498 renal
[3] = tested on: A549 NSCLC
[4] = tested on: ACHN renal
[5] = tested on: CAKI-1 renal
[6] = tested on: CCRF-CEM leukemia
[7] = tested on: COLO 205 colon
[8] = tested on: DLD-1 colon
[9] = tested on: DMS 114 small cell lung
[10] = tested on: DMS 273 small cell lung
[11] = tested on: EKVX NSCLC
[12] = tested on: HCC-2998 colon
[13] = tested on: HCT-116 colon
[14] = tested on: HCT-15 colon
[15] = tested on: HL-60(TB) leukemia
[16] = tested on: HOP-18 NSCLC
[17] = tested on: HOP-62 NSCLC
[18] = tested on: HOP-92 NSCLC
[19] = tested on: HT29 colon
[20] = tested on: IGROV1 ovarian
[21] = tested on: K-562 leukemia
[22] = tested on: KM12 colon
[23] = tested on: KM20L2 colon
[24] = tested on: LXFL 529 NSCLC
[25] = tested on: M14 melanoma
[26] = tested on: M19-MEL melanoma
[27] = tested on: MALME-3M melanoma
[28] = tested on: MOLT-4 leukemia
[29] = tested on: NCI-H23 lung
[30] = tested on: NCI-H460 lung
[31] = tested on: NCI-H522 lung
[32] = tested on: OVCAR-3 ovarian
[33] = tested on: OVCAR-4 ovarian
[34] = tested on: OVCAR-5 ovarian
[35] = tested on: OVCAR-8 ovarian
[36] = tested on: RPMI-8226 leukemia
[37] = tested on: SF-268 CNS
[38] = tested on: SF-295 CNS
[39] = tested on: SF-539 CNS
[40] = tested on: SK-MEL-28 melanoma
[41] = tested on: SK-MEL-5 melanoma
[42] = tested on: SK-OV-3 ovarian
[43] = tested on: SN12C renal
[44] = tested on: SNB-19 CNS
[45] = tested on: SNB-75 CNS
[46] = tested on: SNB-78 CNS
[47] = tested on: SW-620 colon
[48] = tested on: TK-10 renal
[49] = tested on: U251 CNS
[50] = tested on: UACC-257 melanoma
[51] = tested on: UACC-62 melanoma
[52] = tested on: UO-31 renal
[53] = tested on: BT-549 breast
[54] = tested on: DU-145 prostate
[55] = tested on: HS 578T breast
[56] = tested on: LOX IMVI melanoma
[57] = tested on: MCF7 breast
[58] = tested on: MDA-MB-231 breast
[59] = tested on: MDA-MB-435
[60] = tested on: MDA-N
[61] = tested on: NCI-H226 lung
[62] = tested on: NCI/ADR-RES ovarian
[63] = tested on: PC-3 prostate
[64] = tested on: RXF 393 renal
[65] = tested on: SK-MEL-2 melanoma
[66] = tested on: SR leukemia
[67] = tested on: T-47D breast

## O=C(/C=C\c1cccc2ccccc12)c1cccs1
[1]
  TGI: 22.5 µM
[2]
  TGI: 35.6 µM
[3]
  TGI: 34.5 µM
[4]
  TGI: 24.1 µM
[5]
  TGI: 22.7 µM
[6]
  TGI: 7.83 µM
[7]
  TGI: 29.3 µM
[8]
  TGI: 16.9 µM
[9]
  TGI: 14 µM
[10]
  TGI: 17.9 µM
[11]
  TGI: 25.9 µM
[12]
  TGI: 30 µM
[13]
  TGI: 10.7 µM
[14]
  TGI: 13.8 µM
[15]
  TGI: 15.6 µM
[16]
  TGI: 21.8 µM
[17]
  TGI: 41.5 µM
[18]
  TGI: 25.8 µM
[19]
  TGI: 17.4 µM
[20]
  TGI: 23.3 µM
[21]
  TGI: 8.79 µM
[22]
  TGI: 17.6 µM
[23]
  TGI: 22.5 µM
[24]
  TGI: 22.9 µM
[25]
  TGI: 28.3 µM
[26]
  TGI: 22.4 µM
[27]
  TGI: 25.1 µM
[28]
  TGI: 35.8 µM
[29]
  TGI: 34.8 µM
[30]
  TGI: 27.7 µM
[31]
  TGI: 8.49 µM
[32]
  TGI: 23.7 µM
[33]
  TGI: 32.9 µM
[34]
  TGI: 32.8 µM
[35]
  TGI: 24.9 µM
[36]
  TGI: 7.68 µM
[37]
  TGI: 26.1 µM
[38]
  TGI: 34.6 µM
[39]
  TGI: 34.9 µM
[40]
  TGI: 28 µM
[41]
  TGI: 26.1 µM
[42]
  TGI: 31.7 µM
[43]
  TGI: 31.5 µM
[44]
  TGI: 25.3 µM
[45]
  TGI: 61.3 µM
[46]
  TGI: 34.5 µM
[47]
  TGI: 2.99 µM
[48]
  TGI: 33.2 µM
[49]
  TGI: 16.5 µM
[50]
  TGI: 26.1 µM
[51]
  TGI: 21.5 µM
[52]
  TGI: 25.6 µM

## COc1ccc(N=C2C(=O)C3=C(OC(C)(C)CC3)c3ccccc32)cc1
[1]
  TGI: 1.99 µM
[2]
  TGI: 14.7 µM
[3]
  TGI: 1.94 µM
[4]
  TGI: 1.57 µM
[53]
  TGI: 2.58 µM
[5]
  TGI: 1.84 µM
[6]
  TGI: 4.43 µM
[7]
  TGI: 5.8 µM
[54]
  TGI: 1.57 µM
[11]
  TGI: 1.86 µM
[12]
  TGI: 3.96 µM
[13]
  TGI: 1.48 µM
[14]
  TGI: 10.8 µM
[15]
  TGI: 4.38 µM
[17]
  TGI: 1.89 µM
[18]
  TGI: 22.2 µM
[55]
  TGI: 48.8 µM
[19]
  TGI: 1.57 µM
[20]
  TGI: 11.2 µM
[21]
  TGI: 2.24 µM
[22]
  TGI: 1.97 µM
[56]
  TGI: 10.3 µM
[25]
  TGI: 1.5 µM
[27]
  TGI: 1.59 µM
[57]
  TGI: 1.87 µM
[58]
  TGI: 5.44 µM
[59]
  TGI: 0.502 µM
[60]
  TGI: 1.26 µM
[28]
  TGI: 5.29 µM
[61]
  TGI: 20.4 µM
[29]
  TGI: 13 µM
[30]
  TGI: 5.72 µM
[31]
  TGI: 2.45 µM
[62]
  TGI: 16.7 µM
[32]
  TGI: 1.5 µM
[33]
  TGI: 1.51 µM
[34]
  TGI: 6.14 µM
[35]
  TGI: 8.37 µM
[63]
  TGI: 5.49 µM
[64]
  TGI: 2.43 µM
[37]
  TGI: 10.7 µM
[38]
  TGI: 1.56 µM
[39]
  TGI: 0.806 µM
[65]
  TGI: 2.46 µM
[40]
  TGI: 2.48 µM
[41]
  TGI: 1.53 µM
[42]
  TGI: 4.4 µM
[43]
  TGI: 1.63 µM
[44]
  TGI: 2.36 µM
[45]
  TGI: 1.96 µM
[66]
  TGI: 3.44 µM
[47]
  TGI: 1.56 µM
[67]
  TGI: 2.2 µM
[48]
  TGI: 7.93 µM
[49]
  TGI: 1.65 µM
[50]
  TGI: 2.09 µM
[51]
  TGI: 1.74 µM
[52]
  TGI: 1.69 µM
